These results are taken from patent US20250340557A1, “PYRIMIDINE DERIVATIVE” (ASKA PHARMACEUTICAL CO., LTD., priority 2022, published 2025).

The target of one experiment is T1, human mPGES-1 (Homo sapiens, UniProt O14684).
T1 construct: made in house; host or cells: COS-1 cells (transient transfection; microsomal fraction used as enzyme)
T1 sequence (O14684 1-152): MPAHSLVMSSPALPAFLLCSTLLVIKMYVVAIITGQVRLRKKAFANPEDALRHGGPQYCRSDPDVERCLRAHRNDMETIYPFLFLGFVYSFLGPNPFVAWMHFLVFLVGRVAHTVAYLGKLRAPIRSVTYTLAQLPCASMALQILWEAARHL
The experiment can be described thus: Test for mPGES-1 inhibitory activity (microsomal enzyme, PGE2 EIA). In kind it is biochemical. The settings on record: microsomes from COS-1 cells transfected with human mPGES-1 cDNA; substrate PGH2 1 μM; 4° C., 4 minutes; PGE2 measured by EIA; read-out: h mPGES1 IC50. The essentials: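 Enzyme source was microsomes from COS-1 cells transiently expressing human mPGES-1, in sodium phosphate pH 7.2 with 2.5 mM GSH, 1 mM EDTA and 2% DMSO final. After a 15 min preincubation with compound at 4 °C, 1 μM PGH2 (final) reacted for 4 min at 4 °C.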
Usually IC50 stands for the concentration at which inhibition is half-maximal. As to `O=c1cc(C(F)(F)F)nc(-c2c(C(F)(F)F)ccc(CNC(=O)[C@H]3CC[C@H](OCc4cccc(Cl)c4)CC3)c2F)[nH]1` [Example 100, trans-4-[(3-chlorobenzyl)oxy]-N-{2-fluoro-3-[6-oxo-4-(trifluoromethyl)-1,6-dihydropyrimidin-2-yl]-4-(trifluoromethyl)benzyl}cyclohexane-1-carboxamide], the IC50 is below 1 nM.

For `Cc1cc(=O)[nH]c(-c2c(C(F)(F)F)ccc(CNC(=O)[C@H]3CC[C@H](OCc4cccc(Cl)c4)CC3)c2F)n1` [Example 111, trans-4-[(3-chlorobenzyl)oxy]-N-[2-fluoro-3-(4-methyl-6-oxo-1,6-dihydropyrimidin-2-yl)-4-(trifluoromethyl)benzyl]cyclohexane-1-carboxamide], the IC50 is 19 nM.

For `O=c1cc(C(F)(F)F)nc(-c2c(C(F)(F)F)ccc(CNC(=O)[C@H]3C[C@@H](OCc4ccc(Cl)cc4)C3)c2F)[nH]1` [Example 141, cis-3-[(4-chlorobenzyl)oxy]-N-{2-fluoro-3-[6-oxo-4-(trifluoromethyl)-1,6-dihydropyrimidin-2-yl]-4-(trifluoromethyl)benzyl}cyclobutane-1-carboxamide], the concentration for half-maximal inhibition (IC50) is below 1 nM.

In the case of `Cc1cccc2ccc(N3CCC(C(=O)NCc4ccc(Cl)c(-c5nccc(=O)[nH]5)c4)CC3)nc12` [Example 8, N-[4-chloro-3-(6-oxo-1,6-dihydropyrimidin-2-yl)benzyl]-1-(8-methylquinolin-2-yl)piperidine-4-carboxamide], the IC50 is 0.64 nM.

In the case of `O=c1cc(C(F)(F)F)nc(-c2c(C(F)(F)F)ccc(CNC(=O)[C@H]3C[C@@H](OCc4ccccc4Cl)C3)c2F)[nH]1` [Example 137, cis-3-[(2-chlorobenzyl)oxy]-N-{2-fluoro-3-[6-oxo-4-(trifluoromethyl)-1,6-dihydropyrimidin-2-yl]-4-(trifluoromethyl)benzyl}cyclobutane-1-carboxamide], the IC50 is 2.9 nM.

On to `COc1cc(N2CCC(C(=O)NCc3ccc(C(F)(F)F)c(-c4nc(C(F)(F)F)cc(=O)[nH]4)c3F)CC2)ccc1Cl` [Example 83, 1-(4-chloro-3-methoxyphenyl)-N-{2-fluoro-3-[6-oxo-4-(trifluoromethyl)-1,6-dihydropyrimidin-2-yl]-4-(trifluoromethyl)benzyl}piperidine-4-carboxamide], for which the IC50 turned out to be 7.1 nM.

On to `CCc1nc(-c2c(C(F)(F)F)ccc(CNC(=O)C3CCN(c4ccc(C(F)(F)F)cn4)CC3)c2F)[nH]c(=O)c1F` [Example 42, N-[3-(4-ethyl-5-fluoro-6-oxo-1,6-dihydropyrimidin-2-yl)-2-fluoro-4-(trifluoromethyl)benzyl]-1-[5-(trifluoromethyl)pyridin-2-yl]piperidine-4-carboxamide], for which the IC50 was below 1 nM.

On to `Cc1cccc2ccc(N3CC(C(=O)NCc4ccc(C(F)(F)F)c(-c5nc(C(F)(F)F)cc(=O)[nH]5)c4F)C3)nc12` [Example 6, N-{2-fluoro-3-[6-oxo-4-(trifluoromethyl)-1,6-dihydropyrimidin-2-yl]-4-(trifluoromethyl)benzyl}-1-(8-methylquinolin-2-yl)azetidine-3-carboxamide], for which the half-maximal inhibitory concentration (IC50) is below 10 nM.

For `CCc1nc(-c2c(C(F)(F)F)ccc(CNC(=O)[C@H]3CC[C@H](OCc4ccc(F)cc4F)CC3)c2F)[nH]c(=O)c1F` [Example 132, trans-4-[(2,4-difluorobenzyl)oxy]-N-[3-(4-ethyl-5-fluoro-6-oxo-1,6-dihydropyrimidin-2-yl)-2-fluoro-4-(trifluoromethyl)benzyl]cyclohexane-1-carboxamide], the half-maximal inhibitory concentration (IC50) worked out at 21 nM.

As for `O=C(NCc1ccc(C(F)(F)F)c(-c2nc(C(F)(F)F)cc(=O)[nH]2)c1F)C1CCN(c2cc(Cl)cc(Cl)c2)CC1` [Example 82, 1-(3,5-dichlorophenyl)-N-{2-fluoro-3-[6-oxo-4-(trifluoromethyl)-1,6-dihydropyrimidin-2-yl]-4-(trifluoromethyl)benzyl}piperidine-4-carboxamide], the IC50 is 8.1 nM.

With `O=C(NCc1ccc(C(F)(F)F)c(-c2nc(C(F)(F)F)cc(=O)[nH]2)c1F)C1CCN(c2ccc(OC(F)(F)F)cc2)CC1` [Example 68, N-{2-fluoro-3-[6-oxo-4-(trifluoromethyl)-1,6-dihydropyrimidin-2-yl]-4-(trifluoromethyl)benzyl}-1-[4-(trifluoromethoxy)phenyl]piperidine-4-carboxamide], the IC50 is below 1 nM.

As to `Cc1cccc(N2CCC(C(=O)NCc3ccc(C(F)(F)F)c(-c4nc(C(F)(F)F)cc(=O)[nH]4)c3F)CC2)c1` [Example 59, N-{2-fluoro-3-[6-oxo-4-(trifluoromethyl)-1,6-dihydropyrimidin-2-yl]-4-(trifluoromethyl)benzyl}-1-(3-methylphenyl)piperidine-4-carboxamide], the IC50 was found to be 4.2 nM.

`Cc1nc(-c2c(C(F)(F)F)ccc(CNC(=O)C3CCN(c4ncc(C(F)(F)F)cc4F)CC3)c2F)[nH]c(=O)c1F` [Example 48, N-[2-fluoro-3-(5-fluoro-4-methyl-6-oxo-1,6-dihydropyrimidin-2-yl)-4-(trifluoromethyl)benzyl]-1-[3-fluoro-5-(trifluoromethyl)pyridin-2-yl]piperidine-4-carboxamide]: the IC50 is below 1 nM.

Regarding `Cc1cc(=O)[nH]c(-c2c(C(F)(F)F)ccc(CNC(=O)[C@H]3CC[C@H](OCc4cccc(C(F)(F)F)c4)CC3)c2F)n1` [Example 109, trans-N-[2-fluoro-3-(4-methyl-6-oxo-1,6-dihydropyrimidin-2-yl)-4-(trifluoromethyl)benzyl]-4-{[3-(trifluoromethyl)benzyl]oxy}cyclohexane-1-carboxamide], the half-inhibitory concentration (IC50) was 10 nM.

The experiment is the same for the next values; noted with them: microsomes of COS-1 cells transfected with human mPGES-1 cDNA; PGH2 1 μM; 4° C., 4 minutes; PGE2 by EIA; read-out: h mPGES1 IC50.
In the case of `O=C(NCc1ccc(C(F)(F)F)c(-c2nc(C(F)(F)F)cc(=O)[nH]2)c1F)C1(c2ccc(Cl)cc2)CCCC1` [Example 281, 1-(4-chlorophenyl)-N-{2-fluoro-3-[6-oxo-4-(trifluoromethyl)-1,6-dihydropyrimidin-2-yl]-4-(trifluoromethyl)benzyl}cyclopentane-1-carboxamide], the IC50 was determined as 45 nM.

With `O=c1cc(C(F)F)nc(-c2c(C(F)(F)F)ccc(CNC(=O)[C@H]3C[C@H](OCc4ccc(Cl)cc4)C3)c2F)[nH]1` [Example 163, trans-3-[(4-chlorobenzyl)oxy]-N-{3-[4-(difluoromethyl)-6-oxo-1,6-dihydropyrimidin-2-yl]-2-fluoro-4-(trifluoromethyl)benzyl}cyclobutane-1-carboxamide], the 50% inhibitory concentration (IC50) was below 1 nM.

For the compound `O=c1cc(C(F)(F)F)nc(-c2c(C(F)(F)F)ccc(CNC(=O)[C@H]3C[C@@H](OCc4cccc(C(F)(F)F)c4)C3)c2F)[nH]1` [Example 145, cis-N-{2-fluoro-3-[6-oxo-4-(trifluoromethyl)-1,6-dihydropyrimidin-2-yl]-4-(trifluoromethyl)benzyl}-3-{[3-(trifluoromethyl)benzyl]oxy}cyclobutane-1-carboxamide], the IC50 is 98 nM.

`O=c1cc(C(F)(F)F)nc(-c2c(C(F)(F)F)ccc(CNC(=O)[C@H]3C[C@@H](OCc4ccc(F)c(Cl)c4)C3)c2F)[nH]1` [Example 158, cis-3-[(3-chloro-4-fluorobenzyl)oxy]-N-{2-fluoro-3-[6-oxo-4-(trifluoromethyl)-1,6-dihydropyrimidin-2-yl]-4-(trifluoromethyl)benzyl}cyclobutane-1-carboxamide]: the IC50 was below 1 nM.

In the case of `Cc1cc(=O)[nH]c(-c2c(C(F)(F)F)ccc(CNC(=O)[C@H]3C[C@H](OCc4ccc(F)c(F)c4)C3)c2F)n1` [Example 186, trans-3-[(3,4-difluorobenzyl)oxy]-N-[2-fluoro-3-(4-methyl-6-oxo-1,6-dihydropyrimidin-2-yl)-4-(trifluoromethyl)benzyl]cyclobutane-1-carboxamide], the IC50 was 3.2 nM.

`Cc1nc(-c2c(C(F)(F)F)ccc(CNC(=O)[C@H]3C[C@H](OCc4ccc(Cl)cc4)C3)c2F)[nH]c(=O)c1F` [Example 214, trans-3-[(4-chlorobenzyl)oxy]-N-[2-fluoro-3-(5-fluoro-4-methyl-6-oxo-1,6-dihydropyrimidin-2-yl)-4-(trifluoromethyl)benzyl]cyclobutane-1-carboxamide]: the concentration for half-maximal inhibition (IC50) is 8.6 nM.

For the compound `O=C(NCc1ccc(C(F)(F)F)c(-c2nc(C(F)(F)F)cc(=O)[nH]2)c1F)c1ccccc1C(F)(F)F` [Example 273, N-{2-fluoro-3-[6-oxo-4-(trifluoromethyl)-1,6-dihydropyrimidin-2-yl]-4-(trifluoromethyl)benzyl}-2-(trifluoromethyl)benzamide], the half-inhibitory concentration (IC50) was 8.4 nM.

In the case of `O=C(NCc1ccc(C(F)(F)F)c(-c2nc(C(F)(F)F)cc(=O)[nH]2)c1F)C1CCN(CCc2ccccc2)CC1` [Example 278, N-{2-fluoro-3-[6-oxo-4-(trifluoromethyl)-1,6-dihydropyrimidin-2-yl]-4-(trifluoromethyl)benzyl}-1-phenethylpiperidine-4-carboxamide], the 50% inhibitory concentration (IC50) turned out to be 35 nM.

`Cc1nc(-c2c(C(F)(F)F)ccc(CNC(=O)[C@H]3C[C@H](OCc4ccc(F)cc4F)C3)c2F)[nH]c(=O)c1F` [Example 218, trans-3-[(2,4-difluorobenzyl)oxy]-N-[2-fluoro-3-(5-fluoro-4-methyl-6-oxo-1,6-dihydropyrimidin-2-yl)-4-(trifluoromethyl)benzyl]cyclobutane-1-carboxamide]: the IC50 is 13 nM.

With `Cc1cc(=O)[nH]c(-c2c(C(F)(F)F)ccc(CNC(=O)[C@H]3C[C@H](OCc4ccc(F)cc4F)C3)c2F)n1` [Example 184, trans-3-[(2,4-difluorobenzyl)oxy]-N-[2-fluoro-3-(4-methyl-6-oxo-1,6-dihydropyrimidin-2-yl)-4-(trifluoromethyl)benzyl]cyclobutane-1-carboxamide], the half-maximal inhibitory concentration (IC50) was below 1 nM.
